# Results as given in patent US20240238274A1, “INHIBITORS OF UBIQUITIN SPECIFIC PEPTIDASE 22 (USP22) AND USES THEREOF FOR TREATING DISEASE AND DISORDERS” (Northwestern University, priority 2021, published 2024).
# Test system: LLC1 cells
# Assay: LLC1 cells in vitro: counts, viability, growth
# Type: cell-based
# Experimental: FIG. 17: Usp22i-S02 inhibits tumor growth in vitro and in vivo. A, In vitro counts of LLC1 after treatment with Usp22i-S02 under various concentrations for 24 hours (n=2). B, In vitro viability of LLC1 after treatment with Usp22i-S02 under various concentrations for 24 hours (n=2). C, In vitro relative growth of LLC1 cells treated with 10 ug/ml of Usp22i-S02 relative to DMSO treated control for 7 days via OD600 (n=4). D, Growth curve of 1 million subcutaneously injected LLC1 cells into RAG−/− mice treated for 3 days Usp22i-S02 relative to DMSO control injections at day 15 of tumor growth (n=4). C-D, Two-way ANOVA with Sidaks's multiple comparisons between rows relative to control was performed to determine statistical significance. All data are presented as mean±stdev. NS, not significant. *P<0.05, **P<0.01, ***P<0.001, ****P<0.0001.
# As Usp22 is also an important oncogene (43, 44), we were interested in the potential dual-therapeutic function of Usp22i-S02.
smiles,measurement,value
"N#Cc1c2c(c(Nc3ccccc3)n3c1nc1ccccc13)CCCC2 [Chemical S02, 11-anilino-7,8,9,10-tetrahydro-benzimidazo [1,2-b] isoquinoline-6-carbonitrile]","tumor cell counts, viability and growth","decreased tumor cell counts, viability, and growth"
